Assay results from patent US10934298B2, “Substituted pyrazolo[1,5-a]pyrimidines for the treatment of medical disorders” (BIAL—BioTech Investments, Inc., priority 2016, dated 2021).

Target: T1, glucocerebrosidase (Gcase) (Homo sapiens, UniProt P04062)
T1 construct: micellar solution containing 10 nM GCase and 100 nM saposin C
T1 sequence (P04062 40-536): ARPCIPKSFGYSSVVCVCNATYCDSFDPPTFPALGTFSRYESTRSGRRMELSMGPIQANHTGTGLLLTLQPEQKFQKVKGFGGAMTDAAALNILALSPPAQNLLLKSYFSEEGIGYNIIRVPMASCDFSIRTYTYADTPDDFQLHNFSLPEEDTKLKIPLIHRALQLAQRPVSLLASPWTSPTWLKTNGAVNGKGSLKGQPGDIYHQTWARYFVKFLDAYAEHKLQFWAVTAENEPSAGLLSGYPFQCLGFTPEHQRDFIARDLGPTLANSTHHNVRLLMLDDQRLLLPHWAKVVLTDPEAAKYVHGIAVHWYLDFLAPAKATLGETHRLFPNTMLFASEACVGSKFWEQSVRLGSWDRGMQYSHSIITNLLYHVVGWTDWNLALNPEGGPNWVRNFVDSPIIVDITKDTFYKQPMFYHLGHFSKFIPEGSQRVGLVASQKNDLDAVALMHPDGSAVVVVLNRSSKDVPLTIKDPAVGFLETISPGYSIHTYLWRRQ
Assay: Glucocerebrosidase (Gcase) activation assay with 4-methylumbelliferyl-beta-D-glucopyranoside substrate, saposin C and phosphatidylserine/triton micelles, fluorescence readout
Format: biochemical
Settings: Table 3A
Procedure: The ability of exemplary compounds to activate glucocerebrosidase (Gcase) was measured.
A 484 μL aliquot of a 1.0 mg/mL solution of phosphatidylserine (PS) (Sigma P7769) in chloroform was evaporated under a stream of nitrogen for 1 hour. The lipid film was dissolved over 4 minutes of vigorous vortexing in 40 mL of 176 mM K2HPO4/50 mM citric acid (pH 4.7) containing 7.5 μL of triton X-100, resulting in a mixed micellar preparation with a composition of 0.32 mM triton and 0.37 mol % PS. 4-Methylumbelliferyl-beta-D-glucopyranoside (ACROS-337025000) was dissolved in the micellar solution to a final concentration of 2 mM for use as the reaction substrate.
Test compounds were diluted to the desired concentrations with dimethylsulfoxide (DMSO) from 10 mM stocks, and 0.41 μL of the DMSO compound mixture was added to 100 μL of micellar solution containing 10 nM GCase and 100 nM saposin C (Enzo ALX-201-262-C050). Pre-incubation was allowed to occur for 30 minutes at room temperature, after which the reaction was initiated by combining 25 μL of substrate solution with 25 μL of compound/GCase/saposin mixture. The reaction proceeded for 15 minutes at room temperature and was stopped by adding 150 μL of 1M glycine, pH 12.5. The endpoint of the reaction was monitored by measuring fluorescence intensity (excitation: 365 nm; emission: 440 nm) on a SpectraMax i3 instrument (Molecular Devices). Test compounds were screened at 1.0 and 0.1 μM final concentration, and subsequent 8-point dose response curves were obtained using 3-fold dilutions from a maximum final concentration of 5 μM.

Percent Gcase Activation, 0.1 μM Test Compound	Percent Gcase Activation, 1 μM Test Compound	Compound
* (less than 10% Gcase activation)	+ (less than 30% Gcase activation)	Cc1cc(N2CCOCC2)nc2c(C(=O)NC(C)C3CC3)cnn12 (stereo not shown) [III-58]
*** (greater than 20% Gcase activation)	+++ (Gcase activation greater than 60%)	Cc1cc(N2CCCC(F)(F)C2)nc2c(C(=O)NC(C)C3CC3)cnn12 (stereo not shown) [III-61]
*** (greater than 20% Gcase activation)	+++ (Gcase activation greater than 60%)	Cc1cc(-c2cccc(Cl)n2)nc2c(C(=O)NC(C)(C)C3CC3)cnn12 [III-62]
*** (greater than 20% Gcase activation)	+++ (Gcase activation greater than 60%)	Cc1cc(-c2cccc(Cl)c2)nc2c(C(=O)NC(C)C(F)(F)F)cnn12 (stereo not shown) [III-64]
*** (greater than 20% Gcase activation)	+++ (Gcase activation greater than 60%)	Cc1cc(-c2cccc(Cl)c2)nc2c(C(=O)N[C@@H](C)C3CC3)cnn12 [III-65]
*** (greater than 20% Gcase activation)	+++ (Gcase activation greater than 60%)	Cc1cc(N2CCCC(F)(F)C2)nc2c(C(=O)NC(C3CC3)C(F)(F)F)cnn12 (stereo not shown) [III-66]
*** (greater than 20% Gcase activation)	+++ (Gcase activation greater than 60%)	Cc1cc(N2CCC(F)(F)C2)nc2c(C(=O)NC(C3CC3)C(F)(F)F)cnn12 (stereo not shown) [III-67]
* (less than 10% Gcase activation)	+ (less than 30% Gcase activation)	Cc1cc(C(F)(F)F)nc2c(C(=O)NC(C)(C)C3CC3)cnn12 [III-68]
*** (greater than 20% Gcase activation)	+++ (Gcase activation greater than 60%)	C#CC(C)(C)NC(=O)c1cnn2c(C)cc(-c3cccc(OC)c3)nc12 [III-69]
*** (greater than 20% Gcase activation)	+++ (Gcase activation greater than 60%)	Cc1cc(-c2cccc(C#N)c2)nc2c(C(=O)N[C@@H](C)C3CC3)cnn12 [III-70]
*** (greater than 20% Gcase activation)	+++ (Gcase activation greater than 60%)	Cc1cc(-c2cccc(C#N)c2)nc2c(C(=O)NC(C)(C)C3CC3)cnn12 [III-71]

The next lines start with the compound.

Compound	Percent Gcase Activation, 0.1 μM Test Compound	Percent Gcase Activation, 1 μM Test Compound
Cc1cc(-c2cccnc2)nc2c(C(=O)NC(C3CC3)C(F)(F)F)cnn12 (stereo not shown) [III-35]	** (Gcase activation in the range of 10% up to 20%)	+++ (Gcase activation greater than 60%)
Cc1cc(-c2ccccn2)nc2c(C(=O)NC(C3CC3)C(F)(F)F)cnn12 (stereo not shown) [III-36]	*** (greater than 20% Gcase activation)	+++ (Gcase activation greater than 60%)
Cc1cc(-c2cccnc2)nc2c(C(=O)N[C@H](C)c3ccc(Cl)cc3)cnn12 [III-37]	** (Gcase activation in the range of 10% up to 20%)	+++ (Gcase activation greater than 60%)
Cc1cc(-c2cccnc2)nc2c(C(=O)N[C@H]3CC[C@H](OC(C)(C)C)CC3)cnn12 [III-38]	* (less than 10% Gcase activation)	+ (less than 30% Gcase activation)
Cc1cc(-c2cccnc2)nc2c(C(=O)N[C@H]3CC[C@H](OCC(C)C)CC3)cnn12 [III-39]	** (Gcase activation in the range of 10% up to 20%)	+++ (Gcase activation greater than 60%)
CCCO[C@H]1CC[C@H](NC(=O)c2cnn3c(C)cc(-c4cccnc4)nc23)CC1 [III-40]	* (less than 10% Gcase activation)	+ (less than 30% Gcase activation)
Cc1cc(-c2cccnc2)nc2c(C(=O)NC(C(C)C)C(F)(F)F)cnn12 (stereo not shown) [III-41]	** (Gcase activation in the range of 10% up to 20%)	+++ (Gcase activation greater than 60%)
CCC(NC(=O)c1cnn2c(C)cc(-c3cccnc3)nc12)C(F)(F)F (stereo not shown) [III-42]	* (less than 10% Gcase activation)	+++ (Gcase activation greater than 60%)
Cc1cc(-c2cccnc2)nc2c(C(=O)NC(C)C(F)(F)F)cnn12 (stereo not shown) [III-43]	* (less than 10% Gcase activation)	++ (Gcase activation in the range of 30% up to 60%)
Cc1cc(NC2CC2)nc2c(C(=O)NC(C3CC3)C(F)(F)F)cnn12 (stereo not shown) [III-44]	*** (greater than 20% Gcase activation)	+++ (Gcase activation greater than 60%)
Cc1cc(Cl)nc2c(C(=O)NC(C3CC3)C(F)(F)F)cnn12 (stereo not shown) [III-45]	*** (greater than 20% Gcase activation)	+++ (Gcase activation greater than 60%)
COCc1cc(-c2ccc(F)cc2)nc2c(C(=O)N[C@@H](C)C3CC3)cnn12 [III-46]	* (less than 10% Gcase activation)	++ (Gcase activation in the range of 30% up to 60%)
COCc1cc(-c2ccc(F)cc2)nc2c(C(=O)NC(C)(C)C3CC3)cnn12 [III-47]	** (Gcase activation in the range of 10% up to 20%)	+++ (Gcase activation greater than 60%)
CCc1cc(-c2ccccn2)n2ncc(C(=O)NC(C)C3CC3)c2n1 (stereo not shown) [III-48]	* (less than 10% Gcase activation)	++ (Gcase activation in the range of 30% up to 60%)
CCc1cc(-c2ccccn2)nc2c(C(=O)NC(C)C3CC3)cnn12 (stereo not shown) [III-49]	* (less than 10% Gcase activation)	+++ (Gcase activation greater than 60%)
Cc1cc(-c2ccccn2)nc2c(C(=O)NC(C)C(F)(F)F)cnn12 (stereo not shown) [III-50]	** (Gcase activation in the range of 10% up to 20%)	+++ (Gcase activation greater than 60%)
CCc1cc(-c2ccccn2)n2ncc(C(=O)NC(C)C(F)(F)F)c2n1 (stereo not shown) [III-51]	* (less than 10% Gcase activation)	+ (less than 30% Gcase activation)
CCc1cc(-c2ccccn2)nc2c(C(=O)NC(C)C(F)(F)F)cnn12 (stereo not shown) [III-52]	* (less than 10% Gcase activation)	+++ (Gcase activation greater than 60%)
COc1cccc(-c2cc(C)n3ncc(C(=O)NC(C)C(F)(F)F)c3n2)c1 (stereo not shown) [III-55]	*** (greater than 20% Gcase activation)	+++ (Gcase activation greater than 60%)
Cc1cc(-c2cccc(F)c2)nc2c(C(=O)N[C@@H](C)C3CC3)cnn12 [III-56]	*** (greater than 20% Gcase activation)	+++ (Gcase activation greater than 60%)
COc1cccc(-c2cc(C)n3ncc(C(=O)N[C@@H](C)C4CC4)c3n2)c1 [III-57]	*** (greater than 20% Gcase activation)	+++ (Gcase activation greater than 60%)
Cc1cc(N2CCOCC2)nc2c(C(=O)NC(C)(C)C3CC3)cnn12 [III-59]	* (less than 10% Gcase activation)	++ (Gcase activation in the range of 30% up to 60%)
Cc1cc(N2CCC(F)(F)CC2)nc2c(C(=O)NC(C)C3CC3)cnn12 (stereo not shown) [III-60]	* (less than 10% Gcase activation)	++ (Gcase activation in the range of 30% up to 60%)
C#CC(C)(C)NC(=O)c1cnn2c(C)cc(-c3cccc(Cl)n3)nc12 [III-63]	** (Gcase activation in the range of 10% up to 20%)	++ (Gcase activation in the range of 30% up to 60%)
